Measured values from PubChem BioAssay AID540274 (Sanford-Burnham Center for Chemical Genomics, 2011).
Active and inactive are the calls of the source.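 The calls were made as follows: active = mean IC50 below 100 µM; inactive = the rest.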

The compounds below were run against intestinal alkaline phosphatase Alpi (Mus musculus) (assay: mouse IAP inhibition by analogs, SAR follow-up, selectivity assay for human IAP inhibitor project, biochemical, ortholog specificity, luminescence, set 2 (AID 540274)). Conditions: purified mouse IAP, CDP-Star luminescence, 30 min.

| Structure (SMILES) | IC50 |
| --- | --- |
| Cc1ccc(C)c(NC(=O)CCNS(=O)(=O)c2ccc3[nH]c(=O)oc3c2)c1 | 0.219 µM |
| COc1ccc(NC(=O)CNS(=O)(=O)c2ccc3[nH]c(=O)oc3c2)cc1OC | 23 µM |
| N#Cc1ccc(CNC(=O)CCNS(=O)(=O)c2ccc3[nH]c(=O)oc3c2)cc1 | > 100 µM (inactive) |

More lines, now with the values ahead:

| IC50 | Structure (SMILES) |
| --- | --- |
| 5.05 µM | O=C(CNS(=O)(=O)c1ccc2[nH]c(=O)oc2c1)Nc1ccc2c(c1)OCO2 |
| 3.31 µM | O=C(CNS(=O)(=O)c1ccc2[nH]c(=O)oc2c1)NCc1ccc2c(c1)OCO2 |
